The values that follow are results of earlier work, collected in publication PMC9186412, “Rational Framework for the Design of Trp- and Arg-Rich Peptide Antibiotics Against Multidrug-Resistant Bacteria” (Frontiers in Microbiology, 2022).

Series [1] relates to CDC AR isolates. The arrangement: key: S (green), susceptible; I (blue), intermediate; R (red), resistant. The settings on record: data provided by the CDC, ref CDC, cited from earlier work. The text has this:
Supplement Table_3.XLSX, sheet "CDC AR isolates profiles" | column: G(-) strains

Series [2] concerns CDC AR isolates. Also noted: key: S (green), susceptible; I (blue), intermediate; R (red), resistant. The following applies: data provided by the CDC, ref CDC, cited from earlier work. The source holds these as a separate data set.
The mark [3] stands for this setting: Acinetobacter baumannii AB273, CDC AR isolate.
Setting [4] is: Acinetobacter baumannii AB274, CDC AR isolate.
[5] abbreviates: Acinetobacter baumannii AB275, CDC AR isolate.
Setting [6] is: Acinetobacter baumannii AB276, CDC AR isolate.
Setting [7] is: Enterobacter cloacae E62, CDC AR isolate.
Where [8] appears, read: Enterobacter cloacae E544, CDC AR isolate.
[9] abbreviates: Enterobacter cloacae E545, CDC AR isolate.
Setting [10] is: Enterobacter cloacae E546, CDC AR isolate.
[11] abbreviates: Escherichia coli EC541, CDC AR isolate.
Where [12] appears, read: Escherichia coli EC543, CDC AR isolate.
[13] abbreviates: Escherichia coli EC544, CDC AR isolate.
Setting [14] is: Escherichia coli EC549, CDC AR isolate.
Setting [15] is: Klebsiella pneumoniae KP542, CDC AR isolate.
The mark [16] stands for this setting: Klebsiella pneumoniae KP548, CDC AR isolate.
Setting [17] is: Klebsiella pneumoniae KP550, CDC AR isolate.
[18] abbreviates: Klebsiella pneumoniae KP552, CDC AR isolate.
[19] abbreviates: Staphylococcus aureus SA462, CDC AR isolate.
Setting [20] is: Staphylococcus aureus SA463, CDC AR isolate.
The mark [21] stands for this setting: Staphylococcus aureus SA561, CDC AR isolate.
The mark [22] stands for this setting: Staphylococcus aureus SA461, CDC AR isolate.
Setting [23] is: Enterococcus faecium EF500, CDC AR isolate.
Setting [24] is: Enterococcus faecium EF671, CDC AR isolate.
Setting [25] is: Enterococcus faecium EF672, CDC AR isolate.
Setting [26] is: Enterococcus faecium EF673, CDC AR isolate.

Read-outs that look alike come from different tables or passages of the source.

In the case of `CN(C)[C@@H]1C(O)=C(C(N)=O)C(=O)[C@@]2(O)C(O)=C3C(=O)c4c(O)cccc4[C@@](C)(O)[C@H]3C[C@@H]12` [Tetracycline], the Antibiotic susceptibility profile result in series [1] (setting [3]) is recorded as “R”; in series [1] (setting [4]) it was “R”; in series [1] (setting [5]) it was “R”; in series [1] (setting [6]), “S”; in series [1] (setting [7]), “S”; in series [1] (setting [8]) it was “R”. Further, the Antibiotic susceptibility profile result in series [1] (setting [9]) is on record as “I”; in series [1] (setting [10]), “R”; in series [1] (setting [11]), “R”; in series [1] (setting [12]), “R”; in series [1] (setting [13]) it was “R”; in series [1] (setting [14]), “R”. The Antibiotic susceptibility profile entry is listed as “R” in series [1] (setting [15]); “I” in series [1] (setting [16]); “S” in series [1] (setting [17]); “R” in series [1] (setting [18]); “S” in series [1] (setting [19]); “S” in series [1] (setting [20]). The Antibiotic susceptibility profile entry is given as “R” in series [1] (setting [21]) and “S” in series [2] (setting [22]).
In the case of `CC(=O)NC[C@H]1CN(c2ccc(N3CCOCC3)c(F)c2)C(=O)O1` [Linezolid], the Antibiotic susceptibility profile entry in series [1] (setting [23]), in series [1] (setting [24]), in series [1] (setting [25]), in series [1] (setting [19]), in series [1] (setting [20]) and in series [1] (setting [21]) was “S” in each case. Besides, the Antibiotic susceptibility profile entry in series [2] (setting [26]) and in series [2] (setting [22]) was “S” throughout.
On to `CCO/N=C(\C(=O)N[C@@H]1C(=O)N2C(C(=O)[O-])=C(Sc3nc(-c4cc[n+](C)cc4)cs3)CS[C@H]12)c1nsc(N)n1` [Ceftaroline], for which the Antibiotic susceptibility profile result in series [1] (setting [11]) is on record as “R”; in series [1] (setting [12]) it was “R”; in series [1] (setting [13]), “R”; in series [1] (setting [14]), “R”; in series [1] (setting [19]) it was “S”; in series [1] (setting [20]), “S”. Moreover, the Antibiotic susceptibility profile entry in series [1] (setting [21]) and in series [2] (setting [22]) was “S” throughout.
Consider `CO[C@H]1/C=C/O[C@@]2(C)Oc3c(C)c(O)c4c(O)c(c(/C=N/N5CCN(C)CC5)c(O)c4c3C2=O)NC(=O)/C(C)=C\C=C\[C@H](C)[C@H](O)[C@@H](C)[C@@H](O)[C@@H](C)[C@H](OC(C)=O)[C@@H]1C` [Rifampin], for which the Antibiotic susceptibility profile entry was “R” in series [1] (setting [23]); “I” in series [1] (setting [24]); “I” in series [1] (setting [25]); “S” in series [1] (setting [19]); “S” in series [1] (setting [20]); “S” in series [2] (setting [26]). The Antibiotic susceptibility profile result in series [2] (setting [22]) is listed as “S”.
On to `CO[C@@]1(NC(=O)Cc2cccs2)C(=O)N2C(C(=O)O)=C(COC(N)=O)CS[C@@H]21` [Cefoxitin], for which the Antibiotic susceptibility profile entry in series [1] (setting [7]) was “R”; in series [1] (setting [8]), “R”; in series [1] (setting [9]) it was “R”; in series [1] (setting [10]), “R”; in series [1] (setting [11]) it was “S”; in series [1] (setting [12]), “R”. The Antibiotic susceptibility profile result in series [1] (setting [13]), in series [1] (setting [14]), in series [1] (setting [15]), in series [1] (setting [16]), in series [1] (setting [17]) and in series [1] (setting [18]) was “R” each time. Also, the Antibiotic susceptibility profile entry in series [1] (setting [19]), in series [1] (setting [20]), in series [1] (setting [21]) and in series [2] (setting [22]) was “R” each time.
On to `CC1(C)S[C@@H]2[C@H](NC(=O)[C@H](N)c3ccccc3)C(=O)N2[C@H]1C(=O)O` [Ampicillin], for which the Antibiotic susceptibility profile entry in series [1] (setting [3]), in series [1] (setting [4]), in series [1] (setting [5]), in series [1] (setting [6]), in series [1] (setting [7]) and in series [1] (setting [8]) was “R” each time. Moreover, the Antibiotic susceptibility profile entry in series [1] (setting [9]) is recorded as “R”; in series [1] (setting [10]) it was “R”; in series [1] (setting [23]), “R”; in series [1] (setting [24]), “S”; in series [1] (setting [25]), “S”; in series [1] (setting [11]), “R”. Besides, the Antibiotic susceptibility profile result in series [1] (setting [12]), in series [1] (setting [13]), in series [1] (setting [14]), in series [1] (setting [15]), in series [1] (setting [16]) and in series [1] (setting [17]) was “R” throughout. Moreover, the figures for the Antibiotic susceptibility profile entry in series [1] (setting [18]) and in series [2] (setting [26]) were “R” and “S”, respectively.
On to `O=C(N[C@H](CO)[C@H](O)c1ccc([N+](=O)[O-])cc1)C(Cl)Cl` [Chloramphenicol], for which the Antibiotic susceptibility profile result in series [1] (setting [23]) was “I”; in series [1] (setting [24]), “R”; in series [1] (setting [25]), “I”; in series [2] (setting [26]) it was “S”.
For the molecule `CCCCCCCCCC(=O)N[C@@H](Cc1c[nH]c2ccccc12)C(=O)N[C@H](CC(N)=O)C(=O)N[C@@H](CC(=O)O)C(=O)N[C@@H]1C(=O)NCC(=O)N[C@@H](CCCN)C(=O)N[C@@H](CC(=O)O)C(=O)N[C@H](C)C(=O)N[C@@H](CC(=O)O)C(=O)NCC(=O)N[C@H](CO)C(=O)N[C@@H]([C@H](C)CC(=O)O)C(=O)N[C@@H](CC(=O)c2ccccc2N)C(=O)O[C@@H]1C` [Daptomycin], the Antibiotic susceptibility profile result in series [1] (setting [23]), in series [1] (setting [24]), in series [1] (setting [25]), in series [1] (setting [20]), in series [2] (setting [26]) and in series [2] (setting [22]) was “S” throughout.
With `CCC[C@@H]1C[C@@H](C(=O)N[C@@H]([C@H]2O[C@H](SC)[C@H](O)[C@@H](O)[C@H]2O)[C@H](C)Cl)N(C)C1` [Clindamycin], the Antibiotic susceptibility profile result in series [1] (setting [19]) is reported as “S”; in series [1] (setting [20]), “S”; in series [1] (setting [21]), “S”; in series [2] (setting [22]), “R”.
As for `CN[C@H](CC(C)C)C(=O)N[C@H]1C(=O)N[C@@H](CC(N)=O)C(=O)N[C@H]2C(=O)N[C@H]3C(=O)N[C@H](C(=O)N[C@H](C(=O)O)c4cc(O)cc(O)c4-c4cc3ccc4O)[C@H](O)c3ccc(c(Cl)c3)Oc3cc2cc(c3O[C@@H]2O[C@H](CO)[C@@H](O)[C@H](O)[C@H]2O[C@H]2C[C@](C)(N)[C@H](O)[C@H](C)O2)Oc2ccc(cc2Cl)[C@H]1O` [Vancomycin], the Antibiotic susceptibility profile entry in series [1] (setting [23]) is on record as “S”; in series [1] (setting [24]), “S”; in series [1] (setting [25]), “S”; in series [1] (setting [19]) it was “I”; in series [1] (setting [20]) it was “S”; in series [1] (setting [21]), “S”. Further, the Antibiotic susceptibility profile entry in series [2] (setting [26]) and in series [2] (setting [22]) was “S” each time.
Turning to `Nc1nc(-n2cc(C(=O)O)c(=O)c3cc(F)c(N4CC(O)C4)c(Cl)c32)c(F)cc1F` [Delafloxacin], the Antibiotic susceptibility profile entry in series [1] (setting [24]), in series [1] (setting [25]) and in series [2] (setting [26]) was “S” throughout.
